According to patent US7803930B2, “Antisense modulation of apolipoprotein B-expression” (Isis Pharmaceuticals, Inc., priority 2002, dated 2010):
In the oligonucleotide strings, read from the 5' end, every base follows the letter of its sugar. An asterisk marks phosphorothioate; unmarked linkages are phosphodiester. Other units and linkages are bracketed, terminal groups are in braces. A string of capitals states the bases alone. e = 2'-O-(2-methoxyethyl) (MOE); [5mC] = 5-methylcytosine; d = 2'-deoxy (DNA)

Experiments:
[1] = system: rabbit apolipoprotein B mRNA; assay: Inhibition of rabbit apolipoprotein B mRNA levels in primary rabbit hepatocytes, real-time PCR; format: cell-based; set-up: % INHIB of rabbit apolipoprotein B mRNA levels: concentration or dose not given beside the values; details: for Percent Inhibition of rabbit apolipoprotein B mRNA levels: averages from two experiments
Excerpt: Primary rabbit hepatocytes were purchased from Invitro Technologies (Gaithersburg, Md.) and maintained in Dulbecco's modified Eagle's medium (Gibco). When purchased, the cells had been seeded into 96-well plates for use in RT-PCR analysis and were confluent.
In accordance with the present invention, a series of oligonucleotides was designed to target different regions of rabbit apolipoprotein B, using published sequences (GenBank accession number X07480.1, incorporated herein as SEQ ID NO: 808, GenBank accession number M17780.1, incorporated herein as SEQ ID NO: 809, and a sequence was derived using previously described primers (Tanaka, Journ. Biol. Chem., 1993,268, 12713-12718) representing an mRNA of the rabbit apolipoprotein B, incorporated herein as SEQ ID NO: 810). “Target site” indicates the first (5′-most) nucleotide number on the particular target sequence to which the oligonucleotide binds. All compounds in Table 21 are chimeric oligonucleotides (“gapmers”) 20 nucleotides in length, composed of a central “gap” region consisting of ten 2′-deoxynucleotides, which is flanked on both sides (5′ and 3′ directions) by five-nucleotide “wings”. The wings are composed of 2′-methoxyethyl (2′-MOE)nucleotides. The internucleoside (backbone) linkages are phosphorothioate (P═S) throughout the oligonucleotide. All cytidine residues are 5-methylcytidines. The compounds were analyzed for their effect on rabbit apolipoprotein B mRNA levels in primary rabbit hepatocytes by quantitative real-time PCR as described in other examples herein. Primary rabbit hepatocytes were treated with 150 nM of the compounds in Table 21. For rabbit apolipoprotein B the PCR primers were: • forward primer: AAGCACCCCCAATGTCACC (SEQ ID NO: 811) • reverse primer: […] (SEQ ID NO: 812) and the PCR probe was: FAM-[…]-TAMRA (SEQ ID NO: 813) where FAM (PE-Applied Biosystems, Foster City, Calif.) is the fluorescent reporter dye) and TAMRA (PE-Applied Biosystems, Foster City, Calif.) is the quencher dye. Data are averages from two experiments. If present, “N.D.” indicates “no data”.
In accordance with the present invention, a subset of the antisense oligonuclotides in Example 42 was further investigated in dose-response studies. Treatment doses were 10, 50, 150 and 300 nM. ISIS 233160 (SEQ ID NO: 824), ISIS 233166 (SEQ ID NO: 830), ISIS 233172 (SEQ ID NO: 835), ISIS 233175 (SEQ ID NO: 838), and ISIS 233183 (SEQ ID NO: 846) were analyzed for their effect on rabbit apolipoprotein B mRNA levels in primary rabbit hepatocytes by quantitative real-time PCR as described in other examples herein.

[2] = Toxicity in C57BL/6 mice, two weeks (Example 48): liver enzyme levels, body, liver and spleen weight; format: in vivo, mouse; set-up: Weight BODY / Weight LIVER / Weight SPLEEN: unit not given here; details: 25 mg/kg i.p. twice a week
Procedure: C57BL/6 mice were divided into two groups—one group receiving oligonucleotide treatment and control animals receiving saline treatment. After overnight fasting, mice were dosed intraperitoneally twice a week with saline or 25 mg/kg of one of several oligonucleotides for two weeks. The antisense oligonucleotides used in the present study were ISIS 233172 (SEQ ID NO: 835) and ISIS 233175 (SEQ ID NO: 838), both targeted to rabbit apolipoprotein B, and ISIS 281625 (SEQ ID NO: 224), ISIS 301012 (SEQ ID NO: 247), and ISIS 301027 (SEQ ID NO: 262), targeted to human apolipoprotein B. At study termination and forty eight hours after the final injections, animals were sacrificed and evaluated for liver enzyme levels, body weight, liver weight, and spleen weight.

apolipoprotein B protein = assay: Apolipoprotein B protein secreted from primary human hepatocytes, ELISA; format: cell-based; details: 150 nM, 24 hours, "+" = increased
Procedure: (§1) Oligonucleotides were introduced into cells through LIPOFECTIN-mediated transfection as described by other examples herein. Cells were harvested both 24 and 48 hours after treatment with oligonucleotide, and both RNA and protein were isolated. Additionally, the culture media from treated cells was collected for ELISA analysis of apolipoprotein B protein secretion.
Apolipoprotein secreted from into the cultured cell media was measured in the samples treated with 50 and 150 nM of oligonucleotide, using a target protein specific ELISA kit (ALerCHEK Inc., Portland, Me.). Each result represents 3 experiments.
(§2) An additional experiment was performed to test the effects of ISIS 271009 (SEQ ID NO: 319), ISIS 281625 (SEQ ID NO: 224) and ISIS 301027 (SEQ ID NO: 262) on human apolipoprotein B mRNA in human primary hepatocytes. Cells were cultured as described herein and treated with 5, 10, 50 or 150 nM of ISIS 271009, ISIS 281625 or ISIS 301027 for a period of 24 hours. The control oligonucleotides ISIS 13650 (SEQ ID NO: 806) and ISIS 113529 (SEQ ID NO: 859) were used at 50 or 150 nM. Human apolipoprotein B mRNA expression was evaluated by real-time PCR as described by other examples herein. Apolipoprotein B protein secreted into the cultured cell media was measured in the samples treated with 50 and 150 nM of oligonucleotide, using a target protein specific ELISA kit (ALerCHEK Inc., Portland, Me.).

[3] = system: human apolipoprotein B mRNA; assay: Apolipoprotein B mRNA in primary human hepatocytes, real-time PCR; format: cell-based; details: 24 hours (Table 37)
Procedure: In accordance with the present invention, antisense oligonucleotides targeted to human apolipoprotein B were tested in dose response studies in primary human hepatocytes. Pre-plated primary human hepatocytes were purchased from Invitro Technologies (Baltimore, Md.). Cells were cultured in high-glucose DMEM (Invitrogen Corporation, Carlsbad, Calif.) supplemented with 10% fetal bovine serum (Invitrogen Corporation, Carlsbad, Calif.), 100 units/mL and 100 μg/mL streptomycin (Invitrogen Corporation, Carlsbad, Calif.).
Human primary hepatocytes were treated with ISIS 301012 (SEQ ID NO: 247) at 10, 50, 150 or 300 nM. Untreated cells and cells treated with the scrambled control oligonucleotide ISIS 113529 ([…], SEQ ID NO: 859) served as two groups of control cells. ISIS 113529 is a chimeric oligonucleotide (“gapmer”) 20 nucleotides in length, composed of a central “gap” region consisting of ten 2′-deoxynucleotides, which is flanked on both sides (5′ and 3′ directions) by five-nucleotide “wings”. The wings are composed of 2′-methoxyethyl (2′-MOE)nucleotides. The internucleoside (backbone) linkages are phosphorothioate (P═S) throughout the oligonucleotide. All cytidines are 5-methylcytidines.
as §1
Apolipoprotein B mRNA expression was determined by real-time PCR of RNA samples as described by other examples herein. Each result represents 6 experiments.
as §2

Substance: 233172 (antisense eA*eT*eG*eG*eA*dA*dG*dA*d[5mC]*dT*dG*dG*d[5mC]*dA*dG*e[5mC]*eT*e[5mC]*eT*eA) [compound 233172]
- % INHIB of rabbit apolipoprotein B mRNA levels [1]: 86%
- Percent Inhibition of rabbit apolipoprotein B mRNA levels ([1]; 10 nM): 60%
- Percent Inhibition of rabbit apolipoprotein B mRNA levels ([1]; 50 nM): 76%
- Percent Inhibition of rabbit apolipoprotein B mRNA levels ([1]; 150 nM): 81%
- Percent Inhibition of rabbit apolipoprotein B mRNA levels ([1]; 300 nM): 84%
- Liver Enzymes ALT [2]: 43.3 IU/L
- Liver Enzymes AST [2]: 94.3 IU/L
- Weight BODY [2]: 21.3
- Weight LIVER [2]: 1.3
- Weight SPLEEN [2]: 0.1

Substance: 233175 (antisense eG*eA*e[5mC]*e[5mC]*eT*dT*dG*dA*dG*dT*dA*dG*dA*dT*dT*e[5mC]*e[5mC]*eT*eG*eG) [compound 233175]
- % INHIB of rabbit apolipoprotein B mRNA levels [1]: 90%
- Percent Inhibition of rabbit apolipoprotein B mRNA levels ([1]; 10 nM): 67%
- Percent Inhibition of rabbit apolipoprotein B mRNA levels ([1]; 50 nM): 85%
- Percent Inhibition of rabbit apolipoprotein B mRNA levels ([1]; 150 nM): 90%
- Percent Inhibition of rabbit apolipoprotein B mRNA levels ([1]; 300 nM): 93%
- Liver Enzymes ALT [2]: 230.2 IU/L
- Liver Enzymes AST [2]: 346.7 IU/L
- Weight BODY [2]: 21.5
- Weight LIVER [2]: 1.4
- Weight SPLEEN [2]: 0.1

Substance: CTCTTACTGTGCTGTGGACA (antisense e[5mC]*eT*e[5mC]*eT*eT*dA*d[5mC]*dT*dG*dT*dG*d[5mC]*dT*dG*dT*eG*eG*eA*e[5mC]*eA) [ISIS 113529, reference compound]
- % Inhibition of apolipoprotein B protein secretion (apolipoprotein B protein): +1%
- % Inhibition of apolipoprotein B mRNA expression ([3]; 50 nM): 0%
- % Inhibition of apolipoprotein B mRNA expression ([3]; 150 nM): 14%

Substance: ISIS 13650: SEQ ID NO: 806, control oligonucleotide (antisense TCCCGCCTGTGACATGCATT; listed as DNA, chemistry not given here) [reference compound]
- % Inhibition of apolipoprotein B protein secretion (apolipoprotein B protein): +18%
- % Inhibition of apolipoprotein B mRNA expression ([3]; 50 nM): 38%
- % Inhibition of apolipoprotein B mRNA expression ([3]; 150 nM): 26%

Substance: ISIS 233175: SEQ ID NO: 838, targeted to rabbit apolipoprotein B (antisense eG*eA*e[5mC]*e[5mC]*eT*dT*dG*dA*dG*dT*dA*dG*dA*dT*dT*e[5mC]*e[5mC]*eT*eG*eG)
- levels of liver enzymes relative to saline treatment [2]: drastically increased
